According to article PMC10384657 (Virus Research, 2023):

Each molecule was assayed on MPER25c peptide (S2 membrane proximal region derived). Conditions: not given.
Format: binding, SARS-CoV-2

| Structure (SMILES) | fold lower binding activity to immobilized MPER25c than PN19 |
| --- | --- |
| CC[C@H](C)[C@H](NC(=O)[C@H](CCC(N)=O)NC(=O)[C@H](CC(C)C)NC(=O)[C@H](C)NC(=O)[C@H](C)NC(=O)CNC(=O)[C@H](C)NC(=O)CNC(=O)[C@H](Cc1ccccc1)NC(C)=O)C(=O)N1CCC[C@H]1C(=O)N[C@@H](Cc1ccccc1)C(=O)N[C@@H](C)C(=O)N[C@@H](CCSC)C(=O)N[C@@H](CCC(N)=O)C(=O)N[C@@H](CCSC)C(=O)N[C@@H](C)C(=O)N[C@@H](Cc1ccc(O)cc1)C(=O)N[C@@H](CCCNC(=N)N)C(=O)N[C@@H](C)C(N)=O [PN19F→A906] | 2-3 fold |
| CC[C@H](C)[C@H](NC(=O)[C@H](CCC(N)=O)NC(=O)[C@H](CC(C)C)NC(=O)[C@H](C)NC(=O)[C@H](C)NC(=O)CNC(=O)[C@H](C)NC(=O)CNC(=O)[C@H](Cc1ccccc1)NC(C)=O)C(=O)N1CCC[C@H]1C(=O)N[C@@H](C)C(=O)N[C@@H](C)C(=O)N[C@@H](CCSC)C(=O)N[C@@H](CCC(N)=O)C(=O)N[C@@H](CCSC)C(=O)N[C@@H](C)C(=O)N[C@@H](Cc1ccc(O)cc1)C(=O)N[C@@H](CCCNC(=N)N)C(=O)N[C@@H](Cc1ccccc1)C(N)=O [PN19F→A898] | 2-3 fold |

These molecules were tested on Vero E6 cells. Conditions: 72 h.

| Structure (SMILES) | CC50 (mean ± SD) |
| --- | --- |
| CC[C@H](C)[C@H](NC(=O)[C@H](CCC(N)=O)NC(=O)[C@H](CC(C)C)NC(C)=O)C(=O)N1CCC[C@H]1C(=O)N[C@@H](Cc1ccccc1)C(=O)N[C@@H](C)C(=O)N[C@@H](CCSC)C(=O)N[C@@H](CCC(N)=O)C(=O)N[C@@H](CCSC)C(=O)N[C@@H](C)C(=O)N[C@@H](Cc1ccc(O)cc1)C(=O)N[C@@H](CCCNC(=N)N)C(=O)N[C@@H](Cc1ccccc1)C(N)=O [PN13] | > 100 µM |
| CSCC[C@H](NC(=O)[C@H](C)NC(=O)[C@H](Cc1ccccc1)NC(C)=O)C(=O)N[C@@H](CCC(N)=O)C(=O)N[C@@H](CCSC)C(=O)N[C@@H](C)C(=O)N[C@@H](Cc1ccc(O)cc1)C(=O)N[C@@H](CCCNC(=N)N)C(=O)N[C@@H](Cc1ccccc1)C(N)=O [PN9] | > 100 µM |
| CSCC[C@H](NC(=O)[C@H](C)NC(=O)[C@H](Cc1ccccc1)NC(=O)[C@@H]1CCCN1C(=O)[C@H](C)NC(=O)[C@H](CCC(N)=O)NC(=O)[C@H](CC(C)C)NC(=O)[C@H](C)NC(=O)[C@H](C)NC(=O)CNC(=O)[C@H](C)NC(=O)CNC(=O)[C@H](Cc1ccccc1)NC(C)=O)C(=O)N[C@@H](CCC(N)=O)C(=O)N[C@@H](CCSC)C(=O)N[C@@H](C)C(=O)N[C@@H](Cc1ccc(O)cc1)C(=O)N[C@@H](CCCNC(=N)N)C(=O)N[C@@H](Cc1ccccc1)C(N)=O [PN19I→A896] | > 100 µM |
| CC[C@H](C)[C@H](NC(=O)[C@H](CCC(N)=O)NC(=O)[C@H](CC(C)C)NC(=O)[C@H](C)NC(=O)[C@H](C)NC(=O)CNC(=O)[C@H](C)NC(=O)CNC(=O)[C@H](Cc1ccccc1)NC(C)=O)C(=O)N1CCC[C@H]1C(=O)N[C@@H](Cc1ccccc1)C(=O)N[C@@H](C)C(=O)N[C@@H](CCSC)C(=O)N[C@@H](CCC(N)=O)C(=O)N[C@@H](CCSC)C(=O)N[C@@H](C)C(=O)N[C@@H](Cc1ccc(O)cc1)C(=O)N[C@@H](C)C(=O)N[C@@H](Cc1ccccc1)C(N)=O [PN19R→A905] | > 100 µM |
| CC[C@H](C)[C@H](NC(=O)[C@H](CCC(N)=O)NC(=O)[C@H](CC(C)C)NC(=O)[C@H](C)NC(=O)[C@H](C)NC(=O)CNC(=O)[C@H](C)NC(=O)CNC(=O)[C@H](Cc1ccccc1)NC(C)=O)C(=O)N1CCC[C@H]1C(=O)N[C@@H](Cc1ccccc1)C(=O)N[C@@H](C)C(=O)N[C@@H](CCSC)C(=O)N[C@@H](CCC(N)=O)C(=O)N[C@@H](C)C(=O)N[C@@H](C)C(=O)N[C@@H](Cc1ccc(O)cc1)C(=O)N[C@@H](CCCNC(=N)N)C(=O)N[C@@H](Cc1ccccc1)C(N)=O [PN19M→A902] | > 100 µM |
| CC[C@H](C)[C@H](NC(=O)[C@H](C)NC(=O)[C@H](CC(C)C)NC(=O)[C@H](C)NC(=O)[C@H](C)NC(=O)CNC(=O)[C@H](C)NC(=O)CNC(=O)[C@H](Cc1ccccc1)NC(C)=O)C(=O)N1CCC[C@H]1C(=O)N[C@@H](Cc1ccccc1)C(=O)N[C@@H](C)C(=O)N[C@@H](CCSC)C(=O)N[C@@H](CCC(N)=O)C(=O)N[C@@H](CCSC)C(=O)N[C@@H](C)C(=O)N[C@@H](Cc1ccc(O)cc1)C(=O)N[C@@H](CCCNC(=N)N)C(=O)N[C@@H](Cc1ccccc1)C(N)=O [PN19Q→A895] | >100 µM |
| CC[C@H](C)[C@H](NC(=O)[C@H](CCC(N)=O)NC(=O)[C@H](CC(C)C)NC(=O)[C@H](C)NC(=O)[C@H](C)NC(=O)CNC(=O)[C@H](C)NC(=O)CNC(=O)[C@H](C)NC(C)=O)C(=O)N1CCC[C@H]1C(=O)N[C@@H](Cc1ccccc1)C(=O)N[C@@H](C)C(=O)N[C@@H](CCSC)C(=O)N[C@@H](CCC(N)=O)C(=O)N[C@@H](CCSC)C(=O)N[C@@H](C)C(=O)N[C@@H](Cc1ccc(O)cc1)C(=O)N[C@@H](CCCNC(=N)N)C(=O)N[C@@H](Cc1ccccc1)C(N)=O [PN19F→A888] | > 100 µM |
| CC[C@H](C)[C@H](NC(=O)[C@H](CCC(N)=O)NC(=O)[C@H](CC(C)C)NC(=O)[C@H](C)NC(=O)[C@H](C)NC(=O)CNC(=O)[C@H](C)NC(=O)CNC(=O)[C@H](Cc1ccccc1)NC(C)=O)C(=O)N1CCC[C@H]1C(=O)N[C@@H](Cc1ccccc1)C(=O)N[C@@H](C)C(=O)N[C@@H](CCSC)C(=O)N[C@@H](CCC(N)=O)C(=O)N[C@@H](CCSC)C(=O)N[C@@H](C)C(=O)N[C@@H](Cc1ccc(O)cc1)C(=O)N[C@@H](CCCNC(=N)N)C(=O)N[C@@H](C)C(N)=O [PN19F→A906] | > 100 µM |
| CC[C@H](C)[C@H](NC(=O)[C@H](CCC(N)=O)NC(=O)[C@H](CC(C)C)NC(=O)[C@H](C)NC(=O)[C@H](C)NC(=O)CNC(=O)[C@H](C)NC(=O)CNC(=O)[C@H](Cc1ccccc1)NC(C)=O)C(=O)N1CCC[C@H]1C(=O)N[C@@H](Cc1ccccc1)C(=O)N[C@@H](C)C(=O)N[C@@H](CCSC)C(=O)N[C@@H](C)C(=O)N[C@@H](CCSC)C(=O)N[C@@H](C)C(=O)N[C@@H](Cc1ccc(O)cc1)C(=O)N[C@@H](CCCNC(=N)N)C(=O)N[C@@H](Cc1ccccc1)C(N)=O [PN19Q→A901] | > 100 µM |
| CC[C@H](C)[C@H](NC(=O)[C@H](CCC(N)=O)NC(=O)[C@H](C)NC(=O)[C@H](C)NC(=O)[C@H](C)NC(=O)CNC(=O)[C@H](C)NC(=O)CNC(=O)[C@H](Cc1ccccc1)NC(C)=O)C(=O)N1CCC[C@H]1C(=O)N[C@@H](Cc1ccccc1)C(=O)N[C@@H](C)C(=O)N[C@@H](CCSC)C(=O)N[C@@H](CCC(N)=O)C(=O)N[C@@H](CCSC)C(=O)N[C@@H](C)C(=O)N[C@@H](Cc1ccc(O)cc1)C(=O)N[C@@H](CCCNC(=N)N)C(=O)N[C@@H](Cc1ccccc1)C(N)=O [PN19L→A894] | > 100 µM |
| CC[C@H](C)[C@H](NC(=O)[C@H](CCC(N)=O)NC(=O)[C@H](CC(C)C)NC(=O)[C@H](C)NC(=O)[C@H](C)NC(=O)CNC(=O)[C@H](C)NC(C)=O)C(=O)N1CCC[C@H]1C(=O)N[C@@H](Cc1ccccc1)C(=O)N[C@@H](C)C(=O)N[C@@H](CCSC)C(=O)N[C@@H](CCC(N)=O)C(=O)N[C@@H](CCSC)C(=O)N[C@@H](C)C(=O)N[C@@H](Cc1ccc(O)cc1)C(=O)N[C@@H](CCCNC(=N)N)C(=O)N[C@@H](Cc1ccccc1)C(N)=O [PN17] | > 100 µM |
| CC[C@H](C)[C@H](NC(=O)[C@H](CCC(N)=O)NC(=O)[C@H](CC(C)C)NC(=O)[C@H](C)NC(=O)[C@H](C)NC(=O)CNC(=O)[C@H](C)NC(=O)CNC(=O)[C@H](Cc1ccccc1)NC(C)=O)C(=O)N1CCC[C@H]1C(=O)N[C@@H](C)C(=O)N[C@@H](C)C(=O)N[C@@H](CCSC)C(=O)N[C@@H](CCC(N)=O)C(=O)N[C@@H](CCSC)C(=O)N[C@@H](C)C(=O)N[C@@H](Cc1ccc(O)cc1)C(=O)N[C@@H](CCCNC(=N)N)C(=O)N[C@@H](Cc1ccccc1)C(N)=O [PN19F→A898] | > 100 µM |
| CC[C@H](C)[C@H](NC(=O)[C@H](CCC(N)=O)NC(=O)[C@H](CC(C)C)NC(=O)[C@H](C)NC(=O)[C@H](C)NC(=O)CNC(=O)[C@H](C)NC(=O)CNC(=O)[C@H](Cc1ccccc1)NC(=O)[C@@H](NC(=O)[C@H](Cc1c[nH]c2ccccc12)NC(C)=O)[C@@H](C)O)C(=O)N1CCC[C@H]1C(=O)N[C@@H](Cc1ccccc1)C(=O)N[C@@H](C)C(=O)N[C@@H](CCSC)C(=O)N[C@@H](CCC(N)=O)C(=O)N[C@@H](CCSC)C(=O)N[C@@H](C)C(=O)N[C@@H](Cc1ccc(O)cc1)C(N)=O [PNC19] | > 100 µM |
| CC[C@H](C)[C@H](NC(=O)[C@H](CCC(N)=O)NC(=O)[C@H](CC(C)C)NC(=O)[C@H](C)NC(=O)[C@H](C)NC(=O)CNC(=O)[C@H](C)NC(=O)CNC(=O)[C@H](Cc1ccccc1)NC(C)=O)C(=O)N1CCC[C@H]1C(=O)N[C@@H](Cc1ccccc1)C(=O)N[C@@H](C)C(=O)N[C@@H](C)C(=O)N[C@@H](CCC(N)=O)C(=O)N[C@@H](CCSC)C(=O)N[C@@H](C)C(=O)N[C@@H](Cc1ccc(O)cc1)C(=O)N[C@@H](CCCNC(=N)N)C(=O)N[C@@H](Cc1ccccc1)C(N)=O [PN19M→A900] | > 100 µM |
| CC[C@H](C)[C@H](NC(=O)[C@H](CCC(N)=O)NC(=O)[C@H](CC(C)C)NC(=O)[C@H](C)NC(=O)[C@H](C)NC(=O)CNC(=O)[C@H](C)NC(=O)CNC(=O)[C@H](Cc1ccccc1)NC(=O)[C@@H](NC(=O)[C@H](Cc1c[nH]c2ccccc12)NC(=O)CNC(=O)[C@H](CO)NC(C)=O)[C@@H](C)O)C(=O)N1CCC[C@H]1C(=O)N[C@@H](Cc1ccccc1)C(=O)N[C@@H](C)C(=O)N[C@@H](CCSC)C(=O)N[C@@H](CCC(N)=O)C(=O)N[C@@H](CCSC)C(N)=O [PC19] | > 100 µM |
| CC[C@H](C)[C@H](NC(=O)[C@H](CCC(N)=O)NC(=O)[C@H](CC(C)C)NC(=O)[C@H](C)NC(=O)[C@H](C)NC(=O)CNC(=O)[C@H](C)NC(=O)CNC(=O)[C@H](Cc1ccccc1)NC(C)=O)C(=O)N[C@@H](C)C(=O)N[C@@H](Cc1ccccc1)C(=O)N[C@@H](C)C(=O)N[C@@H](CCSC)C(=O)N[C@@H](CCC(N)=O)C(=O)N[C@@H](CCSC)C(=O)N[C@@H](C)C(=O)N[C@@H](Cc1ccc(O)cc1)C(=O)N[C@@H](CCCNC(=N)N)C(=O)N[C@@H](Cc1ccccc1)C(N)=O [PN19P→A897] | > 100 µM |
| CC[C@H](C)[C@H](NC(=O)[C@H](CCC(N)=O)NC(=O)[C@H](CC(C)C)NC(=O)[C@H](C)NC(=O)[C@H](C)NC(=O)CNC(=O)[C@H](C)NC(=O)CNC(=O)[C@H](Cc1ccccc1)NC(C)=O)C(=O)N1CCC[C@H]1C(=O)N[C@@H](Cc1ccccc1)C(=O)N[C@@H](C)C(=O)N[C@@H](CCSC)C(=O)N[C@@H](CCC(N)=O)C(=O)N[C@@H](CCSC)C(N)=O [PNC15] | > 100 µM |
| CC[C@H](C)[C@H](NC(=O)[C@H](CCC(N)=O)NC(=O)[C@H](CC(C)C)NC(=O)[C@H](C)NC(=O)[C@H](C)NC(=O)CNC(=O)[C@H](C)NC(=O)CNC(=O)[C@H](Cc1ccccc1)NC(=O)[C@@H](NC(=O)[C@H](Cc1c[nH]c2ccccc12)NC(=O)CNC(=O)[C@H](CO)NC(C)=O)[C@@H](C)O)C(=O)N1CCC[C@H]1C(=O)N[C@@H](Cc1ccccc1)C(=O)N[C@@H](C)C(=O)N[C@@H](CCSC)C(N)=O [PC17] | > 100 µM |
